Measurements as given in ChEMBL document CHEMBL4507306, “Data for DCP probe KISS1-305” (2021).
Calls of active or inactive are those of the source. The calls are words filed in the database; no cut-off is given here. Square brackets hold non-standard residues; d marks the D form. Peptide text beside a SMILES is read from it. Arg(Me) = CNC(=N)NCCC[C@H](N)C(=O)O; d3Pal = N[C@H](Cc1cccnc1)C(=O)O; d4Pal = N[C@H](Cc1ccncc1)C(=O)O; azaGly = NNC(=O)O

Columns and labels:
[1] = biological target: Beta-3 adrenergic receptor (Homo sapiens) (UniProt P13945); conditions: Compound concentration 1.0 uM
Beta-3 adrenergic receptor (Homo sapiens), sequence (P13945 whole entry, looked up): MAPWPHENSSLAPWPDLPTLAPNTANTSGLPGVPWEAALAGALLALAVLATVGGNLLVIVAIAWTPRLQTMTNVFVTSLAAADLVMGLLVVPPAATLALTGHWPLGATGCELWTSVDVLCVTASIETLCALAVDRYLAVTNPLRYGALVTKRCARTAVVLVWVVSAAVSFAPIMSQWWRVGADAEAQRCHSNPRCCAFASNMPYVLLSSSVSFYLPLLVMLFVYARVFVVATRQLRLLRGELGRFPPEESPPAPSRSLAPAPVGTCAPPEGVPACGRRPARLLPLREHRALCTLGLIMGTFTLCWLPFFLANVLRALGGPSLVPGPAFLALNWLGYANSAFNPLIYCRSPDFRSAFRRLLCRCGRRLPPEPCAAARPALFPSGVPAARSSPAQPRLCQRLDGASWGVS

[2] = biological target: Beta-1 adrenergic receptor (Homo sapiens) (UniProt P08588); conditions: Compound concentration 1.0 uM
[3] = biological target: Muscarinic acetylcholine receptor M3 (Homo sapiens) (UniProt P20309); conditions: Compound concentration 1.0 uM
[4] = biological target: 5-hydroxytryptamine receptor 2B (Homo sapiens) (UniProt P41595); conditions: Compound concentration 1.0 uM
[5] = biological target: 5-hydroxytryptamine receptor 1A (Homo sapiens) (UniProt P08908); conditions: Compound concentration 1.0 uM
[6] = biological target: 5-hydroxytryptamine receptor 1D (Homo sapiens) (UniProt P28221); conditions: Compound concentration 1.0 uM
[7] = biological target: 5-hydroxytryptamine receptor 1E (Homo sapiens) (UniProt P28566); conditions: Compound concentration 1.0 uM
[8] = biological target: Alpha-2B adrenergic receptor (Homo sapiens) (UniProt P18089); conditions: Compound concentration 1.0 uM
[9] = biological target: Histamine H4 receptor (Homo sapiens) (UniProt Q9H3N8); conditions: Compound concentration 1.0 uM
[10] = biological target: D(2) dopamine receptor (Homo sapiens) (UniProt P14416); conditions: Compound concentration 1.0 uM
[11] = biological target: Sigma non-opioid intracellular receptor 1 (Homo sapiens) (UniProt Q99720); conditions: Compound concentration 1.0 uM
KiSS-1 receptor = KiSS-1 receptor (Homo sapiens, UniProt Q969F8); assay: Agonist activity for hGPR54 (C-terminal ethyl amide)
[12] = biological target: D(3) dopamine receptor (Homo sapiens) (UniProt P35462); conditions: Compound concentration 1.0 uM
[13] = biological target: D(4) dopamine receptor (Homo sapiens) (UniProt P21917); conditions: Compound concentration 1.0 uM
[14] = biological target: Muscarinic acetylcholine receptor M1 (Homo sapiens) (UniProt P11229); conditions: Compound concentration 1.0 uM
Muscarinic acetylcholine receptor M1 (Homo sapiens), sequence (P11229 whole entry): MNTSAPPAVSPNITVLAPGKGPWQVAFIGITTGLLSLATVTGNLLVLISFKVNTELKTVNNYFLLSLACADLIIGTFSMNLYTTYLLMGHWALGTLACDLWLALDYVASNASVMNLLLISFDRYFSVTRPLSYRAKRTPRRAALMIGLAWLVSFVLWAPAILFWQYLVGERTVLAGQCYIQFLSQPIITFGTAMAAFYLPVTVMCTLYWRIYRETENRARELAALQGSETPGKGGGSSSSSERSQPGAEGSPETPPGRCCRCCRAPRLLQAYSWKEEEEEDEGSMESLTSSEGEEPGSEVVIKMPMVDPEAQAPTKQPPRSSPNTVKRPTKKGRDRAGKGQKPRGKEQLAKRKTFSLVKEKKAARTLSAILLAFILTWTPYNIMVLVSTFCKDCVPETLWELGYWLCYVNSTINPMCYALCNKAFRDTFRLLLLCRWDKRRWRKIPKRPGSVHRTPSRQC

[15] = biological target: Muscarinic acetylcholine receptor M5 (Homo sapiens) (UniProt P08912); conditions: Compound concentration 1.0 uM
[16] = biological target: Muscarinic acetylcholine receptor M4 (Homo sapiens) (UniProt P08173); conditions: Compound concentration 1.0 uM
[17] = biological target: Sigma intracellular receptor 2 (Homo sapiens) (UniProt Q5BJF2); conditions: Compound concentration 1.0 uM
Sigma intracellular receptor 2 (Homo sapiens), sequence (Q5BJF2 whole entry): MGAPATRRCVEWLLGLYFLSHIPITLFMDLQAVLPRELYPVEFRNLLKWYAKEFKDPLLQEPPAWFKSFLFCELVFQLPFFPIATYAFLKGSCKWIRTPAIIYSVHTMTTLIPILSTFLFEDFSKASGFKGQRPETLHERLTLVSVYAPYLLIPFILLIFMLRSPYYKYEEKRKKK

[18] = biological target: Histamine H3 receptor (Homo sapiens) (UniProt Q9Y5N1); conditions: Compound concentration 1.0 uM
[19] = biological target: T1, GABA-A receptor; anion channel (Rattus norvegicus) (UniProt O09028+P15431+P18506+P18508+P19969+P20236+P23574+P23576+P28471+P28473+P30191+P62813+P63079+P63138+Q91ZM7+Q9ES14); conditions: Compound concentration 1.0 uM
[20] = biological target: Sodium-dependent serotonin transporter (Homo sapiens) (UniProt P31645); conditions: Compound concentration 1.0 uM
[21] = biological target: Kappa-type opioid receptor (Homo sapiens) (UniProt P41145); conditions: Compound concentration 1.0 uM
Kappa-type opioid receptor (Homo sapiens), sequence (P41145 whole entry): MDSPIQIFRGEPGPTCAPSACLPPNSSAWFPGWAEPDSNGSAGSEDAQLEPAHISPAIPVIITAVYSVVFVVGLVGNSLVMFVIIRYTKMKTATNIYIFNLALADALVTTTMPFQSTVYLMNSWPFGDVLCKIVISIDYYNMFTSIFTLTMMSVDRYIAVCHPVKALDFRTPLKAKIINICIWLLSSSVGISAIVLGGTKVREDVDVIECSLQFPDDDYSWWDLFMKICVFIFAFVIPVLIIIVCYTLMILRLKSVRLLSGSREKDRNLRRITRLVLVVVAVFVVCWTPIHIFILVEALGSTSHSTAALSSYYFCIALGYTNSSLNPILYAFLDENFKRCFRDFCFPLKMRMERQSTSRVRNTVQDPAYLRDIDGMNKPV

[22] = biological target: Alpha-2C adrenergic receptor (Homo sapiens) (UniProt P18825); conditions: Compound concentration 1.0 uM
[23] = biological target: Alpha-1B adrenergic receptor (Homo sapiens) (UniProt P35368); conditions: Compound concentration 1.0 uM
Alpha-1B adrenergic receptor (Homo sapiens), sequence (P35368 whole entry): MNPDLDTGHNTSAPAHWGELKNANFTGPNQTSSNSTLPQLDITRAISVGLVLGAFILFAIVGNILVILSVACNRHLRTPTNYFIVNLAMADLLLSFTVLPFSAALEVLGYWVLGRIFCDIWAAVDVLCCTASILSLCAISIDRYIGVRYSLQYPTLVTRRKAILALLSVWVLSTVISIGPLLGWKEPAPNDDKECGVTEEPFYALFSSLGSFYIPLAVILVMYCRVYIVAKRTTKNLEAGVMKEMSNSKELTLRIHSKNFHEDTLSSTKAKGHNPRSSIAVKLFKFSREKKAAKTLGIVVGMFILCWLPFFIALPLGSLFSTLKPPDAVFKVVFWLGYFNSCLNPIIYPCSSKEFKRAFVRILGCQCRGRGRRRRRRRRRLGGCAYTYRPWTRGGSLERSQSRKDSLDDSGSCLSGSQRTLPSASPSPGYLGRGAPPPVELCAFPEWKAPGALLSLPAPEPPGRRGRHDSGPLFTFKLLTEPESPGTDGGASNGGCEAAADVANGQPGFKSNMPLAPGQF

[24] = biological target: Alpha-2A adrenergic receptor (Homo sapiens) (UniProt P08913); conditions: Compound concentration 1.0 uM
Alpha-2A adrenergic receptor (Homo sapiens), sequence (P08913 whole entry): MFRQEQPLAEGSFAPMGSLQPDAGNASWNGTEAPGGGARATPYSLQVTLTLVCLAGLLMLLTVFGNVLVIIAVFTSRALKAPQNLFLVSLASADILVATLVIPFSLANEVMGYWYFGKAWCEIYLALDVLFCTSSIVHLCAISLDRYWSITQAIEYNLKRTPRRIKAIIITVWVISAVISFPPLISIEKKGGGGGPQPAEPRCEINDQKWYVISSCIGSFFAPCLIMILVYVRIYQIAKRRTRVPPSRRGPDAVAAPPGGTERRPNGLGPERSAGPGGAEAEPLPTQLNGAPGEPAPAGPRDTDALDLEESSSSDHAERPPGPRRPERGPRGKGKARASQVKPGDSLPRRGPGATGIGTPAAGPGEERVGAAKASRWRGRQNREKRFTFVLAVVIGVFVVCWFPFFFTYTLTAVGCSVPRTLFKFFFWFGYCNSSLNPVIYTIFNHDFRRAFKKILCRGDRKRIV

[25] = biological target: 5-hydroxytryptamine receptor 2C (Homo sapiens) (UniProt P28335); conditions: Compound concentration 1.0 uM
[26] = biological target: Beta-2 adrenergic receptor (Homo sapiens) (UniProt P07550); conditions: Compound concentration 1.0 uM
Rattus norvegicus = species: Rattus norvegicus; conditions: Compound concentration 1.0 uM
[27] = biological target: D(1B) dopamine receptor (Homo sapiens) (UniProt P21918); conditions: Compound concentration 1.0 uM
[28] = biological target: Muscarinic acetylcholine receptor M2 (Homo sapiens) (UniProt P08172); conditions: Compound concentration 1.0 uM
Muscarinic acetylcholine receptor M2 (Homo sapiens), sequence (P08172 whole entry): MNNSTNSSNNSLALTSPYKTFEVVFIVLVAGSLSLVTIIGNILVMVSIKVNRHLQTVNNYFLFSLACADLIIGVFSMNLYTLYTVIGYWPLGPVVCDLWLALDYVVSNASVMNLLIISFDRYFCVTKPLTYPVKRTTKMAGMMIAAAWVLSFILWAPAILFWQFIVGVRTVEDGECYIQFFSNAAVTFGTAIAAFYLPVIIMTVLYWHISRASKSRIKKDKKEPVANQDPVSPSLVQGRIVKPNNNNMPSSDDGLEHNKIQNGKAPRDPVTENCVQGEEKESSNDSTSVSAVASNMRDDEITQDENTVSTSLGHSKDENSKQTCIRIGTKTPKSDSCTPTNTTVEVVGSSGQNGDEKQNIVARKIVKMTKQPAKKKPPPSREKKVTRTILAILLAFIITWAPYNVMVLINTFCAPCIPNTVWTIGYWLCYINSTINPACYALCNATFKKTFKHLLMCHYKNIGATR

[29] = biological target: Alpha-1D adrenergic receptor (Homo sapiens) (UniProt P25100); conditions: Compound concentration 1.0 uM
[30] = biological target: Sodium-dependent dopamine transporter (Homo sapiens) (UniProt Q01959); conditions: Compound concentration 1.0 uM
[31] = biological target: D(1A) dopamine receptor (Homo sapiens) (UniProt P21728); conditions: Compound concentration 1.0 uM
D(1A) dopamine receptor (Homo sapiens), sequence (P21728 whole entry): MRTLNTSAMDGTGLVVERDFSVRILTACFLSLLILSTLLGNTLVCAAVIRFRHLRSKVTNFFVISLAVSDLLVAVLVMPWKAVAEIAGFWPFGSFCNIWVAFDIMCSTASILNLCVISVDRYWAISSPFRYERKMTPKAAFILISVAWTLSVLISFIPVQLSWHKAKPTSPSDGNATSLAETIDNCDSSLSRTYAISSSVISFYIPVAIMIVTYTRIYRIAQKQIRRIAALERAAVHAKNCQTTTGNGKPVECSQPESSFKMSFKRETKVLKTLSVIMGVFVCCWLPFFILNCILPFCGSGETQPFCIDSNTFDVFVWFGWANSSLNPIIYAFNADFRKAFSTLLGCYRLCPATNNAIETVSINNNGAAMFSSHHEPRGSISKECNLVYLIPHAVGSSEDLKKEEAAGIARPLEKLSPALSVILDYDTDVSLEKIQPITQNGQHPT

[32] = biological target: 5-hydroxytryptamine receptor 6 (Homo sapiens) (UniProt P50406); conditions: Compound concentration 1.0 uM
5-hydroxytryptamine receptor 6 (Homo sapiens), sequence (P50406 whole entry): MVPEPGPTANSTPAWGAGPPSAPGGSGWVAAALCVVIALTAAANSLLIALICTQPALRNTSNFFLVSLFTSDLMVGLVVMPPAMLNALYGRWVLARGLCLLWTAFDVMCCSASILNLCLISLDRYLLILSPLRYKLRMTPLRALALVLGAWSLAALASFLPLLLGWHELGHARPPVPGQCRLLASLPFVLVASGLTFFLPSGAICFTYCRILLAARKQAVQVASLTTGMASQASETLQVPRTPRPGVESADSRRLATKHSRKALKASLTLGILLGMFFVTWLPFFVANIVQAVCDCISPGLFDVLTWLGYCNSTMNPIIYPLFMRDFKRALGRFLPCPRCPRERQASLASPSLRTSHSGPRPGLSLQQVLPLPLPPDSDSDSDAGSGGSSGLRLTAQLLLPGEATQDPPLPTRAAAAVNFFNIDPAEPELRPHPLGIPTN

[33] = biological target: 5-hydroxytryptamine receptor 3A (Homo sapiens) (UniProt P46098); conditions: Compound concentration 1.0 uM
[34] = biological target: Mu-type opioid receptor (Homo sapiens) (UniProt P35372); conditions: Compound concentration 1.0 uM
[35] = biological target: 5-hydroxytryptamine receptor 1B (Homo sapiens) (UniProt P28222); conditions: Compound concentration 1.0 uM
[36] = biological target: 5-hydroxytryptamine receptor 2A (Homo sapiens) (UniProt P28223); conditions: Compound concentration 1.0 uM
[37] = biological target: T1, GABA-A receptor; anion channel (Rattus norvegicus); conditions: Compound concentration 1.0 uM; remark: listed apart in the source
[38] = biological target: Histamine H2 receptor (Homo sapiens) (UniProt P25021); conditions: Compound concentration 1.0 uM
[39] = biological target: 5-hydroxytryptamine receptor 5A (Homo sapiens) (UniProt P47898); conditions: Compound concentration 1.0 uM
[40] = biological target: Sodium-dependent noradrenaline transporter (Homo sapiens) (UniProt P23975); conditions: Compound concentration 1.0 uM
Sodium-dependent noradrenaline transporter (Homo sapiens), sequence (P23975 whole entry): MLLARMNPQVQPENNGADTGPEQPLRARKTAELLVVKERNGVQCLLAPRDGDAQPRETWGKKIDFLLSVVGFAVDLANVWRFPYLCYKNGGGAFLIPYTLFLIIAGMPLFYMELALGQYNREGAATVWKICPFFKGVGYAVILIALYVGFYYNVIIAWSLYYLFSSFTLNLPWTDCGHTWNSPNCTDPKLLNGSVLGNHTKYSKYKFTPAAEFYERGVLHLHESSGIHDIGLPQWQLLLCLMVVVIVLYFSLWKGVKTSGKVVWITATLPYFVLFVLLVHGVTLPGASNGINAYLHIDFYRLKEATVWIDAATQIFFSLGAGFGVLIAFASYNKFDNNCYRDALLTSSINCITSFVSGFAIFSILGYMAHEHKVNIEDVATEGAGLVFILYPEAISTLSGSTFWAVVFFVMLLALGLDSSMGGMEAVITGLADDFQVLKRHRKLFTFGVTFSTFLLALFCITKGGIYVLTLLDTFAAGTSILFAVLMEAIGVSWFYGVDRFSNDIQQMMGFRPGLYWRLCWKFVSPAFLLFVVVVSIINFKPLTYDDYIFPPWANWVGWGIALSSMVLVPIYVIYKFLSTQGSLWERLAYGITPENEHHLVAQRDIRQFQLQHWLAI

[41] = biological target: 5-hydroxytryptamine receptor 7 (Homo sapiens) (UniProt P34969); conditions: Compound concentration 1.0 uM
[42] = biological target: Histamine H1 receptor (Homo sapiens) (UniProt P35367); conditions: Compound concentration 1.0 uM
[43] = Cellular activity assay: GPR54 expressing cell growth
[44] = biological target: Alpha-1A adrenergic receptor (Homo sapiens) (UniProt P35348); conditions: Compound concentration 1.0 uM
[45] = biological target: Delta-type opioid receptor (Homo sapiens, UniProt P41143); assay: GPCRScan assay: inhibition of DOR; design: radioligand conc. used [nm] 1.0 – 2.0, parental cells stable HEK
Delta-type opioid receptor, sequence (P41143 whole entry): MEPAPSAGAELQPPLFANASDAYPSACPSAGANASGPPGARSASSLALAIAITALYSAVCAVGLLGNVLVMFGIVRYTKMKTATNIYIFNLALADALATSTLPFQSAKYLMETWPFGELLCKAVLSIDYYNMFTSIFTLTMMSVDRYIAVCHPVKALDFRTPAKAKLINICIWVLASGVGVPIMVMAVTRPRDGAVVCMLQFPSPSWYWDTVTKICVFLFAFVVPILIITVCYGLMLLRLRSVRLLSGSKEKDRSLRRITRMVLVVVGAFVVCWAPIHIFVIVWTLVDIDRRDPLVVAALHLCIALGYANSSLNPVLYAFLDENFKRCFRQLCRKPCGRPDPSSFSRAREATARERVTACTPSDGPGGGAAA

## CNC(=N)NCCC[C@H](NC(=O)[C@H](CC(C)C)NC(=O)NNC(=O)[C@H](Cc1ccccc1)NC(=O)[C@H](CO)NC(=O)[C@H](CC(N)=O)NC(=O)[C@@H](Cc1cccnc1)NC(=O)[C@H](N)Cc1ccc(O)cc1)C(=O)NCC(N)=O [KISS1-543] (H-[dY][d3Pal]NSF[azaGly]L[Arg(Me)]G-NH2)
[1]
  inhibition: 2.7%
[2]
  inhibition: 3.41%
[3]
  inhibition: 24.7%
[4]
  inhibition: 11.3%
[5]
  inhibition: 30.9%
[6]
  inhibition: 12.4%
[7]
  inhibition: 27.9%
[8]
  inhibition: 14.5%
[9]
  inhibition: -3.39%
[10]
  inhibition: 9.68%
[11]
  inhibition: 0.205%
KiSS-1 receptor
  EC50: > 1000 nM (not active)
[12]
  inhibition: -3.9%
[13]
  inhibition: -9.83%
[14]
  inhibition: 15.1%
[15]
  inhibition: 12.3%
[16]
  inhibition: 18.5%
[17]
  inhibition: -8.74%
[18]
  inhibition: 12.5%
[19]
  inhibition: 12.3%
[20]
  inhibition: -0.408%
[21]
  inhibition: -5.75%
[22]
  inhibition: -0.48%
[23]
  inhibition: -2.08%
[24]
  inhibition: 10.2%
[25]
  inhibition: -2.67%
[26]
  inhibition: -2.89%
Rattus norvegicus
  inhibition: 15.6%
[27]
  inhibition: 29.2%
[28]
  inhibition: 40.7%
[29]
  inhibition: 9.13%
[30]
  inhibition: 10.4%
[31]
  inhibition: -0.599%
[32]
  inhibition: -0.513%
[33]
  inhibition: -8.29%
[34]
  inhibition: -7.85%
[35]
  inhibition: 31%
[36]
  inhibition: 16.9%
[37]
  inhibition: 15.5%
[38]
  inhibition: 3.31%
[39]
  inhibition: 16.3%
[40]
  inhibition: -1.33%
[41]
  inhibition: -6.69%

## CNC(=N)NCCC[C@H](NC(=O)[C@H](CC(C)C)NC(=O)NNC(=O)[C@H](Cc1ccccc1)NC(=O)[C@H](CO)NC(=O)[C@H](CC(N)=O)NC(=O)[C@@H](Cc1ccncc1)NC(=O)[C@H](N)Cc1ccc(O)cc1)C(=O)N[C@@H](Cc1ccccc1)C(N)=O [KISS1-305] (H-[dY][d4Pal]NSF[azaGly]L[Arg(Me)]F-NH2)
[1]
  inhibition: 7.09%
[2]
  inhibition: 0.557%
[3]
  inhibition: 10.7%
[4]
  inhibition: 1.13%
[5]
  inhibition: 18.5%
[6]
  inhibition: 10.4%
[7]
  inhibition: 24.1%
[8]
  inhibition: 17.6%
[9]
  inhibition: 10.4%
[42]
  inhibition: 19.9%
[10]
  inhibition: 0.859%
[11]
  inhibition: 3.72%
[12]
  inhibition: -8.85%
[14]
  inhibition: 2.17%
[15]
  inhibition: 14.9%
[16]
  inhibition: 13.8%
[17]
  inhibition: -5.31%
[18]
  inhibition: 43.3%
[19]
  inhibition: 13.6%
[20]
  inhibition: 8.84%
[21]
  inhibition: -6.31%
[22]
  inhibition: 4.19%
[23]
  inhibition: -7.65%
[24]
  inhibition: 8.6%
[25]
  inhibition: 12.8%
[26]
  inhibition: 1.39%
Rattus norvegicus
  inhibition: 31.4%
[27]
  inhibition: 0.512%
[28]
  inhibition: 25.1%
[29]
  inhibition: 13.9%
[30]
  inhibition: 12%
[31]
  inhibition: -7.58%
[32]
  inhibition: 4.93%
[34]
  inhibition: -4.62%
[43]
  IC50: 8.94 nM (active)
[44]
  inhibition: -9.06%
[45]; read-out: Ki
  Ki: 47.5 nM
[45]; read-out: pKi (converted)
  Ki: 44.7 nM
[35]
  inhibition: 29.3%
[37]
  inhibition: 1.39%
[38]
  inhibition: 4.38%
[39]
  inhibition: 20.1%
[40]
  inhibition: 5.4%
[41]
  inhibition: -2.33%
